Test results: ChEMBL document CHEMBL1201862, “PubChem BioAssay data set” (2004)
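Tested at 5 concentrations; 48 h exposure; 96-well plates; endpoints linearly interpolated, else capped at highest concentration. At the GI50, growth is halved.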 The source made the active and inactive calls. Cut-off read from the data, not from the text of the source: active = GI50 up to about 1.1 µM and inactive = higher.

Key:
Assay in all cases: NCI anticancer screen, dose series, 48 h
K562 = tested on: K562
MCF7 = tested on: MCF7
SK-OV-3 = tested on: SK-OV-3
SW-620 = tested on: SW-620
OVCAR-8 = tested on: OVCAR-8
M14 = tested on: M14
HT-29 = tested on: HT-29
CCRF-CEM = tested on: CCRF-CEM
SK-MEL-2 = tested on: SK-MEL-2
NCI/ADR-RES = tested on: NCI/ADR-RES
ACHN = tested on: ACHN
TK-10 = tested on: TK-10
SNB-19 = tested on: SNB-19
DU-145 = tested on: DU-145
SK-MEL-5 = tested on: SK-MEL-5
OVCAR-3 = tested on: OVCAR-3
SR = tested on: SR
HOP-92 = tested on: HOP-92

Measured: GI50

Cc1ccc(C(=O)OC[C@H]2CC[C@@H](n3cc(N(C)C4CCCCC4)c(=O)[nH]c3=O)O2)cc1
inactive: K562 38 µM | MCF7 22.1 µM | SK-OV-3 8.28 µM | SW-620 40 µM | OVCAR-8 28.1 µM | M14 11 µM | HT-29 18.5 µM | CCRF-CEM 27.4 µM | SK-MEL-2 85.7 µM | NCI/ADR-RES 20 µM | ACHN 26.6 µM | TK-10 30 µM | SNB-19 19.3 µM | DU-145 > 100 µM | SK-MEL-5 18.8 µM | OVCAR-3 21.6 µM | SR 95.7 µM

C=C1C(=O)O[C@H]2C1C[C@@H](O)[C@@]1(C)OC1CC[C@@]1(C)O[C@H]21 (stereo partly drawn)
inactive: K562 9.33 µM | MCF7 14.8 µM | SK-OV-3 > 100 µM | SW-620 13.3 µM | OVCAR-8 34.7 µM | HOP-92 17.2 µM | M14 16.3 µM | HT-29 32.8 µM | CCRF-CEM 5.15 µM | SK-MEL-2 17.6 µM | NCI/ADR-RES 20.7 µM | ACHN 13.7 µM | TK-10 17.8 µM | SNB-19 > 100 µM | DU-145 36.6 µM | SK-MEL-5 16.1 µM | SR 14.1 µM

CCOP(=O)(OCC)C1CC(O)C(=O)N1 (stereo not drawn)
inactive: K562 > 100 µM | MCF7 > 100 µM | SK-OV-3 > 100 µM | SW-620 > 100 µM | OVCAR-8 > 100 µM | M14 > 100 µM | HT-29 > 100 µM | CCRF-CEM > 100 µM | SK-MEL-2 > 100 µM | NCI/ADR-RES > 100 µM | ACHN > 100 µM | TK-10 > 100 µM | SNB-19 > 100 µM | DU-145 > 100 µM | SK-MEL-5 > 100 µM | OVCAR-3 > 100 µM | SR > 100 µM

CC(C)=C=CC(C)(C)NS(=O)(=O)NC(C)(C)C=C=C(C)C
inactive: K562 19.8 µM | MCF7 > 100 µM | SK-OV-3 > 100 µM | SW-620 > 100 µM | OVCAR-8 > 100 µM | HOP-92 > 100 µM | M14 > 100 µM | HT-29 75.5 µM | SK-MEL-2 > 100 µM | NCI/ADR-RES > 100 µM | ACHN > 100 µM | TK-10 > 100 µM | SNB-19 > 100 µM | DU-145 > 100 µM | SK-MEL-5 > 100 µM | OVCAR-3 71.3 µM | SR 18.4 µM

CCn1c(=O)c2c3ccc(O)cc3oc2c2ccc(O)cc21
inactive: K562 40.6 µM | MCF7 39.2 µM | SK-OV-3 38.5 µM | SW-620 41 µM | OVCAR-8 50.6 µM | HOP-92 57.9 µM | M14 43.2 µM | HT-29 48.1 µM | CCRF-CEM 28.2 µM | NCI/ADR-RES 53.3 µM | ACHN 24.8 µM | TK-10 44 µM | SNB-19 43.8 µM | DU-145 47.8 µM | SK-MEL-5 22.5 µM | OVCAR-3 42.7 µM | SR 27.6 µM

CC(NC(=N)N)C(=O)O (stereo not drawn)
inactive: K562 > 100 µM | MCF7 > 100 µM | SK-OV-3 > 100 µM | SW-620 > 100 µM | OVCAR-8 > 100 µM | M14 > 100 µM | HT-29 > 100 µM | CCRF-CEM > 100 µM | SK-MEL-2 > 100 µM | NCI/ADR-RES > 100 µM | ACHN > 100 µM | TK-10 > 100 µM | SNB-19 > 100 µM | DU-145 > 100 µM | SK-MEL-5 > 100 µM | OVCAR-3 > 100 µM | SR > 100 µM

O=C1C2=Cc3ccccc3OC2(O)Oc2cc(O)ccc21 (stereo not drawn)
inactive: K562 > 100 µM | MCF7 > 100 µM | SK-OV-3 > 100 µM | SW-620 > 100 µM | OVCAR-8 > 100 µM | HOP-92 > 100 µM | M14 > 100 µM | HT-29 > 100 µM | CCRF-CEM 27.5 µM | SK-MEL-2 > 100 µM | NCI/ADR-RES > 100 µM | ACHN > 100 µM | TK-10 > 100 µM | DU-145 > 100 µM | SK-MEL-5 > 100 µM | OVCAR-3 > 100 µM

CC(=O)OCC1=C(C)C(OC(=O)C(OC(C)=O)[C@@H](NC(=O)c2ccccc2)c2ccccc2)CCC1(C)C (stereo partly drawn)
inactive: K562 > 100 µM | MCF7 > 100 µM | SK-OV-3 > 100 µM | SW-620 > 100 µM | OVCAR-8 > 100 µM | HT-29 > 100 µM | CCRF-CEM > 100 µM | NCI/ADR-RES > 100 µM | ACHN > 100 µM | TK-10 > 100 µM | SNB-19 > 100 µM | DU-145 > 100 µM | SK-MEL-5 > 100 µM | OVCAR-3 > 100 µM | SR > 100 µM
